Reference: US20240246942A1, “KINASE INHIBITORS FOR THE TREATMENT OF NEURODEGENERATIVE DISEASES” (priority 2020, published 2024)

Experiments:
Assay in all cases: biochemical
[1] = target: T1, panel of 374 wild-type kinases (Homo sapiens, UniProt O15146); conditions: read-out: % Enzyme Activity (relative to DMSO controls), MUSK
T1 construct: purchased Reaction Biology Corporation
T1 sequence (O15146 24-869): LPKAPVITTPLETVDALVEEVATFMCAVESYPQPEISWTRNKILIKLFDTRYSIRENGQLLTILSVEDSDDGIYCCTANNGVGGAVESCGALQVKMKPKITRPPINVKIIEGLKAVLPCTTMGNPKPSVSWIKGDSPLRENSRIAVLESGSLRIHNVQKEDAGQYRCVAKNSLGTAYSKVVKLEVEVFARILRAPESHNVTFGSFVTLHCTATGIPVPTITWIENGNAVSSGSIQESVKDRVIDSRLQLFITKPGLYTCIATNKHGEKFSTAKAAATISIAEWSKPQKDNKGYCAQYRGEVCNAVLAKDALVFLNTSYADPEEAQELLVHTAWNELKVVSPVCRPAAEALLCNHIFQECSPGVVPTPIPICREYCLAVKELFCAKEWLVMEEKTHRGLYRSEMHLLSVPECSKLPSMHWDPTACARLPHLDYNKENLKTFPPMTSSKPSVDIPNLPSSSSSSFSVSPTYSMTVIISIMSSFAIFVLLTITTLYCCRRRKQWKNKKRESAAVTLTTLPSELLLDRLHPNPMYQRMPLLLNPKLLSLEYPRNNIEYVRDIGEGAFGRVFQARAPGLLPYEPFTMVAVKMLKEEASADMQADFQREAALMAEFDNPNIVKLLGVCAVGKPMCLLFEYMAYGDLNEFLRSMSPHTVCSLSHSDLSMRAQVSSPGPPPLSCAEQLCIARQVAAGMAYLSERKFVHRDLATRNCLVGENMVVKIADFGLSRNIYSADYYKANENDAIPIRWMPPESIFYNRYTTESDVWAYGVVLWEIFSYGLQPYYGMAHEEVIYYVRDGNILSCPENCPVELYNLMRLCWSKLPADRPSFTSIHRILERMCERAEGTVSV

[2] = target: T2, panel of 374 wild-type kinases (Homo sapiens, UniProt Q9NYL2); conditions: read-out: % Enzyme Activity (relative to DMSO controls), kinase ZAK/MLTK
T2 construct: purchased Reaction Biology Corporation

[3] = target: T3, panel of 374 wild-type kinases (Homo sapiens, UniProt P49760); conditions: read-out: % Enzyme Activity (relative to DMSO controls), CLK2
T3 construct: purchased Reaction Biology Corporation

[4] = target: T4, panel of 374 wild-type kinases (Homo sapiens, UniProt Q9Y3S1); conditions: read-out: % Enzyme Activity (relative to DMSO controls), kinase WNK2
T4 construct: purchased Reaction Biology Corporation

[5] = target: T5, panel of 374 wild-type kinases (Homo sapiens, UniProt Q7L7X3); conditions: read-out: % Enzyme Activity (relative to DMSO controls), kinase TAOK1
T5 construct: purchased Reaction Biology Corporation
T5 sequence (Q7L7X3 1-1001): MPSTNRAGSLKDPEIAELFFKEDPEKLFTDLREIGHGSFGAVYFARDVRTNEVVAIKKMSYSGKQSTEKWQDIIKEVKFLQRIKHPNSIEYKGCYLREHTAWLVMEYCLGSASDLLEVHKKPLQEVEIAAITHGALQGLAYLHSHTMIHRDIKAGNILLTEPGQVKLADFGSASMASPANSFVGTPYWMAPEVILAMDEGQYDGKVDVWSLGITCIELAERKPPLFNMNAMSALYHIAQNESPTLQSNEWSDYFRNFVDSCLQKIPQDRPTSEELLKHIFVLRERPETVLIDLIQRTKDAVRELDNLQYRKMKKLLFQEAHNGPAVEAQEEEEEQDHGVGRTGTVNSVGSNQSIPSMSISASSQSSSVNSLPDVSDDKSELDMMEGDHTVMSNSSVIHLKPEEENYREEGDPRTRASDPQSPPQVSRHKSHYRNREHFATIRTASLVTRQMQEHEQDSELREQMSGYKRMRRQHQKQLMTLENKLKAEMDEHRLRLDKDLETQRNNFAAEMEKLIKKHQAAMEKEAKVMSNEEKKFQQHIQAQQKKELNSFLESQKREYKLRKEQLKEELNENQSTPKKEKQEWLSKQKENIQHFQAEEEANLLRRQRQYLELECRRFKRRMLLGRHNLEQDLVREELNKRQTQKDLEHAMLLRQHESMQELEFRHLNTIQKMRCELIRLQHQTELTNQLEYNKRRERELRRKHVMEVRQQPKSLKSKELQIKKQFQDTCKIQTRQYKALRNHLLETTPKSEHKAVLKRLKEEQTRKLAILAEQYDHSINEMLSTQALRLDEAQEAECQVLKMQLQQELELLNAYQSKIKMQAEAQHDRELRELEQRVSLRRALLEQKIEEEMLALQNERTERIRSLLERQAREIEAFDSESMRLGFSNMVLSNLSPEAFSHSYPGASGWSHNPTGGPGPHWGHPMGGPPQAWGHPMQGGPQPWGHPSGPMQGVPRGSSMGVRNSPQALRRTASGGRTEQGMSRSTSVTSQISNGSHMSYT

[6] = target: T6, panel of 374 wild-type kinases (Homo sapiens, UniProt Q06187); conditions: read-out: % Enzyme Activity (relative to DMSO controls), BTK
T6 construct: purchased Reaction Biology Corporation

[7] = target: T7, panel of 374 wild-type kinases (Homo sapiens, UniProt Q05513); conditions: read-out: % Enzyme Activity (relative to DMSO controls), kinase PKCzeta
T7 construct: purchased Reaction Biology Corporation
T7 sequence (Q05513 1-592): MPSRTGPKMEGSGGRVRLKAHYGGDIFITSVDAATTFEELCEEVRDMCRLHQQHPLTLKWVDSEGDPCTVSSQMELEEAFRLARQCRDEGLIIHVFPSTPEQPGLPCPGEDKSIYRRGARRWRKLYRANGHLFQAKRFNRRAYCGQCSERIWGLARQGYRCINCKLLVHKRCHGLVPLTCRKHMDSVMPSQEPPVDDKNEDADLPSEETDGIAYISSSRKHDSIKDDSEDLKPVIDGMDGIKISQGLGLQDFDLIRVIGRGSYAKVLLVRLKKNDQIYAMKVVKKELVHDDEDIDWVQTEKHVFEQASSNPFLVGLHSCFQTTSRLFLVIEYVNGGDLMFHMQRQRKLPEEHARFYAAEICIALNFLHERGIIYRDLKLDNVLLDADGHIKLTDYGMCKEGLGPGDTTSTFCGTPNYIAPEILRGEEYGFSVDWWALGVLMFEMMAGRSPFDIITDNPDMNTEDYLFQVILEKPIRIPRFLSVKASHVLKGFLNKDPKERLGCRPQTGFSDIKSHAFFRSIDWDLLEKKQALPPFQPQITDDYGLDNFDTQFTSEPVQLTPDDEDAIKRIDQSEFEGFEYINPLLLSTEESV

T4 sequence (Q9Y3S1 whole entry): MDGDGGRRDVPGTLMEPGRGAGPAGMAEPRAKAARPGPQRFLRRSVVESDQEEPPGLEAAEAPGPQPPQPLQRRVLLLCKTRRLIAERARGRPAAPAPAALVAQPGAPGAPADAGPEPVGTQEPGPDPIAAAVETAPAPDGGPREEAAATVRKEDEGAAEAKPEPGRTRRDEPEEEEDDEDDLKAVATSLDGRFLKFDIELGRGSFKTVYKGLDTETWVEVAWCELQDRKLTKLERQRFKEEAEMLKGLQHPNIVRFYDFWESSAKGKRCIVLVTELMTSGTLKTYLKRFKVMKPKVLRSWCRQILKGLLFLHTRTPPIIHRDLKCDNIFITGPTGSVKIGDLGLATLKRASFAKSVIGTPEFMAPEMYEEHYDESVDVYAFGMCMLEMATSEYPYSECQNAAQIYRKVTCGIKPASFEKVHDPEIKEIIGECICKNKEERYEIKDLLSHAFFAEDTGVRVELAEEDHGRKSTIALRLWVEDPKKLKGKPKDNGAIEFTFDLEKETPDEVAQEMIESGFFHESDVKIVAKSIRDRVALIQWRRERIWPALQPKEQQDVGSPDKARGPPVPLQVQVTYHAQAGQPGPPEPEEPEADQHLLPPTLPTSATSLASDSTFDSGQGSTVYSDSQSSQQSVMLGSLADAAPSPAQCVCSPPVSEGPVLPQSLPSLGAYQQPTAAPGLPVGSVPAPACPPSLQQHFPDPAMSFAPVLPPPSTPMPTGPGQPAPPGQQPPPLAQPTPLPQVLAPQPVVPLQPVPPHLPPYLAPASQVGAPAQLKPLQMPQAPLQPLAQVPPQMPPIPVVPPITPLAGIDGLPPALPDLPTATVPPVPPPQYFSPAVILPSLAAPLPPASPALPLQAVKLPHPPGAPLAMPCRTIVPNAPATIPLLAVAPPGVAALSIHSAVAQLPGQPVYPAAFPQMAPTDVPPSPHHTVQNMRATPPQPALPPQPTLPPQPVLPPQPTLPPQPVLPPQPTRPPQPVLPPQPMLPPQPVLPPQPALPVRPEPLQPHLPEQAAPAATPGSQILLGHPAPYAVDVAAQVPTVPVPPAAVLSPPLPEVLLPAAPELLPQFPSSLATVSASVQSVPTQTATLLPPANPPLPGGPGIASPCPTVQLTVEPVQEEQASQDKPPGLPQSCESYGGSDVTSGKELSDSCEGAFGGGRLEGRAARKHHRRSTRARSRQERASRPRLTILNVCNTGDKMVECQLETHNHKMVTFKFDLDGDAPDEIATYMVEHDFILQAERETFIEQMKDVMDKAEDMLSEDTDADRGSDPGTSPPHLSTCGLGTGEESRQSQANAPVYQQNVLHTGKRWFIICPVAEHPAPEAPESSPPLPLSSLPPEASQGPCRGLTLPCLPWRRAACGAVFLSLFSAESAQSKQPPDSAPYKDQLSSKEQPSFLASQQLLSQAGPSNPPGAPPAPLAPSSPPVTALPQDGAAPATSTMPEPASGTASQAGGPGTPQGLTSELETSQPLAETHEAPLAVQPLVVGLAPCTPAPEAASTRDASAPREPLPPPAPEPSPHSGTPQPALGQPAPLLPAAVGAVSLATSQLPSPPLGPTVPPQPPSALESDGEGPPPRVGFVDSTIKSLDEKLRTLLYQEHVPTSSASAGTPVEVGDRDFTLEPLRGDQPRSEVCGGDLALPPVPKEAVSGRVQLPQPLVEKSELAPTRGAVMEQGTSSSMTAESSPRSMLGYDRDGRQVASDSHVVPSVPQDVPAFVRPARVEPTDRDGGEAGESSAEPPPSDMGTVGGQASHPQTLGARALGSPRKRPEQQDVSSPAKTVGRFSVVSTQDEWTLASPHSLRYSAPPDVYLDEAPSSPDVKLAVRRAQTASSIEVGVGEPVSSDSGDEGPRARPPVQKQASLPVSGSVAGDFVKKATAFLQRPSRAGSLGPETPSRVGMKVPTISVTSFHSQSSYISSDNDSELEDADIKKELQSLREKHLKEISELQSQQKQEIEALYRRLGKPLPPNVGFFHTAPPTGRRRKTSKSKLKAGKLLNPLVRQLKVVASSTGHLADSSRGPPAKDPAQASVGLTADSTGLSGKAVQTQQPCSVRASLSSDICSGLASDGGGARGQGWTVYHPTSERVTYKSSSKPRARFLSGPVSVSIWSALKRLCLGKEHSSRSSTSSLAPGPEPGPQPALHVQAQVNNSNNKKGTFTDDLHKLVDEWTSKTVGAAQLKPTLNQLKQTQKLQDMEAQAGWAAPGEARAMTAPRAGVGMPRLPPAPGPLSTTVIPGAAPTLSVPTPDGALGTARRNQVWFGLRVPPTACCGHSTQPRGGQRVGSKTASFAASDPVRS
T3 sequence (P49760 whole entry): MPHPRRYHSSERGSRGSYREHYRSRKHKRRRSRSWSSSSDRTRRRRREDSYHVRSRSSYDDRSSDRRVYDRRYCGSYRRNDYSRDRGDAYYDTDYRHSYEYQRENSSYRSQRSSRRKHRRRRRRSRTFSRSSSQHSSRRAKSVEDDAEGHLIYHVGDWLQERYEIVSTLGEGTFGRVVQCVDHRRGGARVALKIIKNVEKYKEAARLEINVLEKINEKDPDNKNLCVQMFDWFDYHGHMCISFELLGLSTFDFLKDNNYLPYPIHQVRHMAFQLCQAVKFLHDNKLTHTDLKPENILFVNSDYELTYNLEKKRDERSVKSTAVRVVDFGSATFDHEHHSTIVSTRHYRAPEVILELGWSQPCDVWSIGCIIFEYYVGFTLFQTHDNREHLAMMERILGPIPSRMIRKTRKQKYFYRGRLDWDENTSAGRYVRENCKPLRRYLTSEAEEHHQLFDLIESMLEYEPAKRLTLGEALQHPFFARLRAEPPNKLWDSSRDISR
T2 sequence (Q9NYL2 whole entry): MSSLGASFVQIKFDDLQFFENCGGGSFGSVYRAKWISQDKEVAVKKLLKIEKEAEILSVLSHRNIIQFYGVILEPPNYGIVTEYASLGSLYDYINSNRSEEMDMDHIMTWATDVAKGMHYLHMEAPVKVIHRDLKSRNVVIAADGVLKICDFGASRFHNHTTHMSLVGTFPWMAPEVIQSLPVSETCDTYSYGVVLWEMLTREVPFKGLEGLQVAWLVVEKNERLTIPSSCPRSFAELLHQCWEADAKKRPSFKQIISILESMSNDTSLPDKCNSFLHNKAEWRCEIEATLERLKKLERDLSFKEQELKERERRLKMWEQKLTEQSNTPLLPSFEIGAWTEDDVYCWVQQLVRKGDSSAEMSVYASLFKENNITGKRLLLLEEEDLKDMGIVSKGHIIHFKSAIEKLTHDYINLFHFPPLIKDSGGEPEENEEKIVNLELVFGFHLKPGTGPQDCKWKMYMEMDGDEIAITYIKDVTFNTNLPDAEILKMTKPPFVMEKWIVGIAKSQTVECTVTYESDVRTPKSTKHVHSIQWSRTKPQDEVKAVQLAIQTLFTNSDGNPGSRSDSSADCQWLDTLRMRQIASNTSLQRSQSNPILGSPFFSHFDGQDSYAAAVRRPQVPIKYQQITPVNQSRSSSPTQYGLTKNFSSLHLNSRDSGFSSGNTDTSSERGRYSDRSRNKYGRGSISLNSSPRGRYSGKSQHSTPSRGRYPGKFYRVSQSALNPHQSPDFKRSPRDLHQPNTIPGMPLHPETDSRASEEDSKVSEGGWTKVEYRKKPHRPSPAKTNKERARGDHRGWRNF
T6 sequence (Q06187 whole entry): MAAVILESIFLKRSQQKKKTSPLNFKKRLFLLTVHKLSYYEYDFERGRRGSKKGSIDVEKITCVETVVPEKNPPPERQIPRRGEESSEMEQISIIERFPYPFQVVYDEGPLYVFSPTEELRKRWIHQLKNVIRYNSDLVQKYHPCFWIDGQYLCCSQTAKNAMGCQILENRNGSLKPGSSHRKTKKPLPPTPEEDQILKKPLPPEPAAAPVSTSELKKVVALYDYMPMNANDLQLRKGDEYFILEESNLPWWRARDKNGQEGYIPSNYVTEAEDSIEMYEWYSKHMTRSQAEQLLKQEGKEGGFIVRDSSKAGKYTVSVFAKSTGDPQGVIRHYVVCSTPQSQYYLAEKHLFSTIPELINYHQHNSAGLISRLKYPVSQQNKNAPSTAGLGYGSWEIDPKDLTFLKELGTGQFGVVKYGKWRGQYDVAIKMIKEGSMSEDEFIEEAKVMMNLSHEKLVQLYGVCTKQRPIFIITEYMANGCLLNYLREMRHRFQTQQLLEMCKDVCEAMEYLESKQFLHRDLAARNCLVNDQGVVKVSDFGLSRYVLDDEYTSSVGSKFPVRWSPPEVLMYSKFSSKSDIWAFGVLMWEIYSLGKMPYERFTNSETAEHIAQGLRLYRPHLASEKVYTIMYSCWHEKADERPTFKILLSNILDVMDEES

Compound	remaining activity at 10 µM ([1]; 10 uM)	remaining activity at 10 µM ([2]; 10 uM)	remaining activity at 10 µM ([3]; 10 uM)	remaining activity at 10 µM ([4]; 10 uM)	remaining activity at 10 µM ([5]; 10 uM)	remaining activity at 10 µM ([6]; 10 uM)	remaining activity at 10 µM ([7]; 10 uM)	remaining activity at 5 µM [1]	remaining activity at 5 µM [2]	remaining activity at 5 µM [3]	remaining activity at 5 µM [4]	remaining activity at 5 µM [5]	remaining activity at 5 µM [6]	remaining activity at 5 µM [7]
Cc1sc(C(=O)NC2COC2)cc1-n1cc(NC(=O)Nc2c(F)cccc2Cl)cn1 [Compound 27, 4-(4-(3-(2-chloro-6-fluorophenyl)ureido)-1H-pyrazol-1-yl)-5-methyl-N-(oxetan-3-yl)thiophene-2-carboxamide]	103%	89.9%	105%	91.1%	110%	87.6%	104%	–	–	–	–	–	–	–
O=C(Nc1cnn(-c2csc(C(=O)NC3COC3)c2)c1)Nc1c(F)cccc1Cl [Compound 25, 4-(4-(3-(2-chloro-6-fluorophenyl)ureido)-1H-pyrazol-1-yl)-N-(oxetan-3-yl)thiophene-2-carboxamide]	–	–	–	–	–	–	–	86.8%	90.4%	112%	91.9%	90.6%	89.3%	93.6%
O=C(Nc1cnn(-c2csc(C(=O)NC3COC3)c2)c1)Nc1ccccc1Cl [Compound 17, 4-(4-(3-(2-chlorophenyl)ureido)-1H-pyrazol-1-yl)-N-(oxetan-3-yl)thiophene-2-carboxamide]	–	–	–	–	–	–	–	94.5%	101%	103%	96.3%	122%	92.6%	105%
